Measured values as given in publication PMC9775652, “Concomitant Administration of Red Ginseng Extract with Lactic Acid Bacteria Increases the Plasma Concentration of Deglycosylated Ginsenosides in Healthy Human Subjects” (Biomolecules, 2022).
Read-outs that look alike come from different tables or passages of the source.

How the values were obtained:
Format in all cases: in vitro ADME
P-gp = target: T1, P-gp (Homo sapiens, UniProt P08183); test: Transport of ginsenosides in P-gp-overexpressing LLC-PK1-P-gp cells; conditions: pig, 20 μM
T1 construct: host or cells: LLC-PK1-P-gp cells (passage no. 25–28)
T1 sequence (P08183 whole entry): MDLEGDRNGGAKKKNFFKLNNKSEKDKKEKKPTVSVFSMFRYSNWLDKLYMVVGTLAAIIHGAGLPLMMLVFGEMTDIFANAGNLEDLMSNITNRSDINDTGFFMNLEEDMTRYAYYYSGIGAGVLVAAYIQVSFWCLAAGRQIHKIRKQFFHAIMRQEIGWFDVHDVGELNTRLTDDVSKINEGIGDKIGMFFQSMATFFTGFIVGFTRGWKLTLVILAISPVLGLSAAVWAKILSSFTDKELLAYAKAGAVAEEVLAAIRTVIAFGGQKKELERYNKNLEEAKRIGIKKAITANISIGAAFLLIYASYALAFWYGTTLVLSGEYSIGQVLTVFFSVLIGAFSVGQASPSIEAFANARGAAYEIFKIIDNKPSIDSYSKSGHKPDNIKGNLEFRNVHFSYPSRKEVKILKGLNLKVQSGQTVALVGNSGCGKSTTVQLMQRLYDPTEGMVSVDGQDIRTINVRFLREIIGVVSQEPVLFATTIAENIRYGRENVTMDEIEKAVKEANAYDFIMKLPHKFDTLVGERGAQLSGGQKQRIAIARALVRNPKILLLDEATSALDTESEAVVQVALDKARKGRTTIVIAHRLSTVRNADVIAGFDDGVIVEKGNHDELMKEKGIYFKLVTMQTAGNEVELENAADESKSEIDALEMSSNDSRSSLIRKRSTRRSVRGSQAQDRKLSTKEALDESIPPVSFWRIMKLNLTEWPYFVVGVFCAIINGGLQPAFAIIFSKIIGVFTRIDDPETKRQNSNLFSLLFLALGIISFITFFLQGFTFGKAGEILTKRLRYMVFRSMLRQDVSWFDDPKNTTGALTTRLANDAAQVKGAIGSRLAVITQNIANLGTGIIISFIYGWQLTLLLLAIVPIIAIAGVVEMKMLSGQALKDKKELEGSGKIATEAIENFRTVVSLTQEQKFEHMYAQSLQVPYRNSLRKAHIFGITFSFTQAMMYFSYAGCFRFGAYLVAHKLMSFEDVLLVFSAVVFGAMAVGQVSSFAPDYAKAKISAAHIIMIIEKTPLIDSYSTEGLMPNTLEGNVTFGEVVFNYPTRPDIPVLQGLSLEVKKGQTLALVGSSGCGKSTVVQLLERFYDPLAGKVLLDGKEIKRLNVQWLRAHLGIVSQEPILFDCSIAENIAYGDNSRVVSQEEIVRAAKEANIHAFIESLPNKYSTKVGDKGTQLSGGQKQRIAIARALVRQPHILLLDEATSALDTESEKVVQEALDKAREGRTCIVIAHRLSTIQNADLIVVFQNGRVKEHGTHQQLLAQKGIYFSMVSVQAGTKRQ
Description: LLC-PK1-P-gp cells (passage no. 25–28) were seeded onto collagen-coated permeable support (1.0 μm pore size) in 24-well plates at a density of 2.5 × 10^4 cells/insert and grown for 5 days with TEER values of over 500 Ω·cm^2 [24]. The A to B transport and B to A transport of GRg3, GRh2, CK, PPD, GRg1, GRh1, and PPT (20 μM each) were measured as previously described. The concentration dependency in the B to A transport of GRh2, CK, PPD, and PPT was measured in the range of 6.25–200 μM for GRh2, CK, PPD, and PPT.
(§1) For the transport study of ginsenosides in CaCo-2 cells and LLC-PK1-P-gp cells, the ginsenoside transport rate in the A to B or B to A directions was calculated from the slope of the regression line from the mean transported amounts versus time plot. The apparent permeability (Papp) was calculated using Equation (1). (1) Papp (×10^−6 cm/s)=transport rate (nmol/min)/concentration(μM)×area(cm^2)×60s
(§2) The efflux ratio was calculated by dividing the Papp of ginsenosides from the B to A direction by that from the A to B direction.
To measure the kinetic parameters of the concentration dependence on the P-gp-mediated ginsenoside efflux, the ginsenoside transport rate in the B to A direction (ν) versus the ginsenoside concentration (S) plot was fitted in the Michaelis–Menten Equation (2) using Sigma Plot (version 12.0, Systat Software Inc. Chicago, IL, USA). (2) ν=Vmax×S/Km+S

[1] = Transport (permeability) of ginsenosides in CaCo-2 cell monolayers; conditions: human
Description: CaCo-2 cells (passage no 41–43) were seeded onto collagen-coated permeable support (1.0 μm pore size) in a 24-well plate at a density of 2.5 × 10^4 cells/insert and cultured for 21 days in Dulbecco’s modified eagle’s medium supplemented with 10% fetal bovine serum, 1% non-essential amino acids, and 1% penicillin-streptomycin at 37 °C in a humidified atmosphere (5% CO2/95% air). After confirming that the transepithelial electrical resistance (TEER) of the CaCo-2 cell monolayer was over 400 Ω·cm^2, Apical to basal (A to B) transport and B to A transport of ginsenosides using 50 µM, GRb1 was investigated as previously described. The same permeability study was performed using 50 µM GRb2, GRc, GRd, GRg3, GRh2, GF2, CK, PPD, GRe, GRf, GRg1, GRh1, GF1, or PPT.
as §1, §2

LAB = test: In vitro RGE fermentation with LAB; conditions: RGE incubated with LAB (1 billion CFU) for 7 days at 37 °C; result in words
Description: To identify the effects of LAB on ginsenoside metabolism, an in vitro fermentation study was performed according to the method of Jeon et al., with slight modifications. Briefly, RGE (10 mL, 1 pouch) and 2 g LAB (containing 1 billion CFU) were suspended in 10 mL autoclaved MRS broth (550 mg broth powder dissolved in 10 mL water). For the 15 ginsenosides, individual ginsenosides (10 μM each) and 2 g of LAB were suspended in 20 mL of autoclaved MRS broth (550 mg broth powder dissolved in 20 mL water). The mixture was incubated for 7 days in a shaking incubator at 37 °C and 300 rpm, and a 0.1 mL aliquot of the incubation mixture was collected on days 0, 3, 5, and 7. The incubation medium was diluted 100-fold with distilled water and stored at −80 °C to analyze ginsenosides using the LC-MS/MS system.
To measure the metabolic activity of ginsenosides, the formation rate of ginsenosides (pmol/day) was calculated by dividing the slope of the regression line by the amount of deglycosylated ginsenosides versus the incubation time plot by the initial concentration of individual ginsenosides.

Compound | efflux ratio at 20 μM (P-gp; LLC-PK1, LLC-PK1-P-gp cells, B to A Papp divided by A to B Papp, read-out: ER) | Papp A→B at 20 μM (P-gp; LLC-PK1-P-gp cells, mean ± SD, n = 3, read-out: A to B permeability) | Papp B→A at 20 μM (P-gp; LLC-PK1-P-gp cells, mean ± SD, n = 3, read-out: B to A permeability) | Papp A→B at 50 µM ([1]; CaCo-2 cell monolayers, 50 µM ginsenoside, read-out: A to B Papp) | Relative abundance / metabolic activity following fermentation of RGE with LAB (LAB) | Papp A→B at 50 µM ([1]; Caco-2)
CC(C)=CCCC(C)(O)C1CCC2(C)C1C(O)CC1C3(C)CCC(O)C(C)(C)C3C(OC3OC(CO)C(O)C(O)C3O)CC12C (stereo not shown) [GRh1] | 0.9 | 0.21 ± 0.09 ×10⁻⁶ cm/s | 0.18 ± 0.01 ×10⁻⁶ cm/s | < 0.3 ×10⁻⁶ cm/s | significantly increased | –
CC(C)=CCCC(C)(OC1OC(CO)C(O)C(O)C1O)C1CCC2(C)C1C(O)CC1C3(C)CCC(O)C(C)(C)C3C(O)CC12C (stereo not shown) [GF1] | – | – | – | – | remained unchanged | < 0.3 ×10⁻⁶ cm/s
